# Measured values reported in patent publication US8445690B2, “Aminothiazolones as estrogen related receptor-alpha modulators” (Janssen Pharmaceutica NV, priority 2010, dated 2013).
# Target: T1, ERR1 (also known as ERR-α or ERR-1) (Homo sapiens, UniProt P11474)
# T1 sequence (P11474 193-421 limits assumed): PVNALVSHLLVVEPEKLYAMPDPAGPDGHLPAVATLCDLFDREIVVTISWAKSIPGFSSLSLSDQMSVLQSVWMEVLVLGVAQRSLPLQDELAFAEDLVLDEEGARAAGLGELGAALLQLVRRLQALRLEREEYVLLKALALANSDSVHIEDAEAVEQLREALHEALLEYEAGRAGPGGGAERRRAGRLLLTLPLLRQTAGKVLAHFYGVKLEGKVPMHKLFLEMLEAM
# Assay: TR-FRET assay: disruption of co-activator peptide (GST-hSRC2) binding to 6His-tagged ERR1 LBD
# Format: biochemical
# Conditions: 6 nM ERR1LBD, 6 nM GST-SRC-2 peptide, 25° C., 4-18 hours; average of 3 independent experiments
# Protocol: Time-Resolved Fluorescence Resonance Energy Transfer (TR-FRET) experiments were performed to examine the functional response of ERR1 (also known as ERR-α or ERR-1) ligands. The TR-FRET assay described herein relied on the conformation of ERR1 for binding to a co-activator peptide: when a test compound binds to ERR1 and alters its conformation, it can disrupt the binding of the co-activator peptide. The components of this homogeneous secondary assay included: the ^6His-tagged-ERR1LBD, a GST-labeled-hSRC2 co-activator polypeptide and a fluorescent donor/acceptor pair from CIS bio international htrf/bioassays (Bedford, Mass.) using both an α-GST Europium Cryptate (Eu) label and an α^6His-XL665 (allophycocyanin) fluorophore.
# For TR-FRET measurements, the reaction was buffered in 25 mM Tris pH 8, 2.5 mM Hepes, 20 mM KCl, 1 mM DTT, and 0.05 mg/mL BSA (-lipids). The final concentrations of reagents were 6 nM of ERR1LBD, 6 nM GST-SRC-2 peptide, 30 nM Eu cryptate, and 7.5 nM XL665. Reactions were allowed to reach equilibrium at 25° C. for 4-18 hours before collecting data on the Analyst from LJL Biosystems (Molecular Devices Sunnyvale, Calif.). As a time-resolved method, the samples were excited at […] and emission was collected for 1 ms at both 615 and 665 nm with delays of 400 and 75 μs, respectively. Dose response curves were fitted using a hyperbolic equation and the data reported is the average of 3 independent experiments.
# Compounds listed in Tables II below were tested in the above assay, and they are all active modulators of ERR1.
row,SMILES,EC50 [µM]
1,"O=C1N=C(N[C@@H]2CNC[C@H]2O)S/C1=C\c1ccc2c(cnn2Cc2ccc(Cl)cc2C(F)(F)F)c1 [Compound 47, (5Z)-5-({1-[4-Chloro-2-(trifluoromethyl)benzyl]-1H-indazol-5-yl}methylidene)-2-{[(3R,4R)-4-hydroxypyrrolidin-3-yl]amino}-1,3-thiazol-4(5H)-one]",0.037
2,"O=C1N=C(N[C@@H]2CN3CCC2CC3)S/C1=C\c1ccc2c(cnn2Cc2ccc(Cl)cc2C(F)(F)F)c1 [Compound 27, 2-(1-Aza-bicyclo[2.2.2]oct-3(S)-ylamino)-5-[1-(4-chloro-2-trifluoromethyl-benzyl)-1H-indazol-5-ylmethylene]-thiazol-4-one]",0.011
3,"CNC(=O)CNC1=NC(=O)/C(=C/c2ccc3c(cnn3Cc3ccc(Cl)cc3C(F)(F)F)c2)S1 [Compound 41, 2-{5-[1-(4-Chloro-2-trifluoromethyl-benzyl)-1H-indazol-5-ylmethylene]-4-oxo-4,5-dihydro-thiazol-2-ylamino}-N-methyl-acetamide]",0.0077
4,"CN1CCC(NC2=NC(=O)/C(=C/c3ccc4c(cnn4Cc4ccc(Cl)cc4C(F)(F)F)c3)S2)CC1 [Compound 25, 5-[1-(4-Chloro-2-trifluoromethyl-benzyl)-1H-indazol-5-ylmethylene]-2-(1-methyl-piperidin-4-ylamino)-thiazol-4-one]",0.042
5,"NS(=O)(=O)CCNC1=NC(=O)/C(=C/c2ccc3c(cnn3Cc3ccc(C(F)(F)F)cc3C(F)(F)F)c2)S1 [Compound 31, 2-{5-[1-(2,4-Bis-trifluoromethyl-benzyl)-1H-indazol-5-ylmethylene]-4-oxo-4,5-dihydro-thiazol-2-ylamino}-ethanesulfonic acid amide]",0.037
6,"O=C1N=C(NCc2c[nH]nn2)S/C1=C\c1ccc2c(cnn2Cc2ccc(Cl)cc2C(F)(F)F)c1 [Compound 42, 5-[1-(4-Chloro-2-trifluoromethyl-benzyl)-1H-indazol-5-ylmethylene]-2-[(1H-[1,2,3]triazol-4-ylmethyl)-amino]-thiazol-4-one]",0.01
7,"O=C1N=C(NC2CCN(CCO)CC2)S/C1=C\c1ccc2c(cnn2Cc2ccc(Cl)cc2C(F)(F)F)c1 [Compound 22, 5-[1-(4-Chloro-2-trifluoromethyl-benzyl)-1H-indazol-5-ylmethylene]-2-[1-(2-hydroxy-ethyl)-piperidin-4-ylamino]-thiazol-4-one]",0.014
8,"O=C(O)CNC1=NC(=O)/C(=C/c2ccc3c(cnn3Cc3ccc(Cl)cc3C(F)(F)F)c2)S1 [Compound 4, {5-[1-(4-Chloro-2-trifluoromethyl-benzyl)-1H-indazol-5-ylmethylene]-4-oxo-4,5-dihydro-thiazol-2-ylamino}-acetic acid]",0.0231
9,"O=C1N=C(NCc2cncnc2)S/C1=C\c1ccc2c(cnn2Cc2ccc(Cl)cc2C(F)(F)F)c1 [Compound 32, 5-[1-(4-Chloro-2-trifluoromethyl-benzyl)-1H-indazol-5-ylmethylene]-2-[(pyrimidin-5-ylmethyl)-amino]-thiazol-4-one]",0.0086
